Values of other authors, collected in patent US20240325430A1, “MULTIPLE FOLATE FORMULATION AND USE THEREOF” (JAYMAC PHARMACEUTICAL LLC, priority 2012, published 2024).

Tested on: hydrocephalic Texas rats
Conditions: injected into hydrocephalic Texas rats during fetal development; J Neuropathol Exp Neurol 2009

Structure (SMILES): Nc1nc2ncc(CNc3ccc(C(=O)N[C@@H](CCC(=O)O)C(=O)O)cc3)nc2c(=O)[nH]1 [folic acid]
- incidence of hydrocephalus: significant increase
